In PMC5218480 (PLoS ONE, 2017):

Tested on: MV-4-11 cells
Test: Gene expression microarray analysis (Affymetrix PrimeView) and GSEA
Assay type: cell-based, human
Set-up: RFU PODN (11730768_x_at) / Fold change /veh PODN (11730768_x_at) / RFU LINC00158 (11744669_a_at) / Fold change /veh LINC00158 (11744669_a_at) / RFU DUSP10 (11751237_a_at) / Fold change /veh DUSP10 (11751237_a_at) / RFU ID3 (11757404_x_at) / Fold change /veh ID3 (11757404_x_at) / RFU PLEKHG5 (11737974_s_at) / Fold change /veh PLEKHG5 (11737974_s_at) / RFU LRRC4B (11730491_at) / Fold change /veh LRRC4B (11730491_at) / RFU GIMAP4 (11747438_a_at) / Fold change /veh GIMAP4 (11747438_a_at) / RFU KRT8 (11758183_x_at) / Fold change /veh KRT8 (11758183_x_at) / RFU CNN1 (11734310_a_at) / Fold change /veh CNN1 (11734310_a_at) / RFU VPS37D (11726825_at) / Fold change /veh VPS37D (11726825_at) / RFU C10orf10 (11716522_x_at) / Fold change /veh C10orf10 (11716522_x_at) / RFU KIR2DL2 /// KIR2DL4 /// KIR2DL5A /// KIR2DL5B /// KIR2DS1 /// KIR2DS2 /// KIR2DS3 /// KIR2DS4 /// KIR3DL3 /// KIR3DL3 /// KIR3DS1 (11738374_at) / Fold change /veh KIR2DL2 /// KIR2DL4 /// KIR2DL5A /// KIR2DL5B /// KIR2DS1 /// KIR2DS2 /// KIR2DS3 /// KIR2DS4 /// KIR3DL3 /// KIR3DL3 /// KIR3DS1 (11738374_at) / RFU C1QL1 (11718748_at) / Fold change /veh C1QL1 (11718748_at) / RFU TMPRSS4 (11747572_a_at) / Fold change /veh TMPRSS4 (11747572_a_at) / RFU HAMP (11756126_x_at) / Fold change /veh HAMP (11756126_x_at) / RFU RNFT2 (11725882_a_at) / Fold change /veh RNFT2 (11725882_a_at) / RFU NR4A2 (11747474_a_at) / Fold change /veh NR4A2 (11747474_a_at) / RFU ABCC12 (11746883_a_at) / Fold change /veh ABCC12 (11746883_a_at) / RFU TMEM136 (11760407_x_at) / Fold change /veh TMEM136 (11760407_x_at) / RFU CLDN22 /// WWC2 (11732394_at) / Fold change /veh CLDN22 /// WWC2 (11732394_at) / RFU HLA-DPB1 (11760878_x_at) / Fold change /veh HLA-DPB1 (11760878_x_at) / RFU SPINT1 (11716480_a_at) / Fold change /veh SPINT1 (11716480_a_at) / RFU GAP43 (11754022_s_at) / Fold change /veh GAP43 (11754022_s_at) / RFU A4GNT (11735810_at) / Fold change /veh A4GNT (11735810_at) / RFU PRB3 (11715151_x_at) / Fold change /veh PRB3 (11715151_x_at) / RFU TUBB4B (11761932_at) / Fold change /veh TUBB4B (11761932_at) / RFU CAPN14 (11732068_a_at) / Fold change /veh CAPN14 (11732068_a_at) / RFU TMCC2 (11721928_a_at) / Fold change /veh TMCC2 (11721928_a_at) / RFU IRGQ (11745062_a_at) / Fold change /veh IRGQ (11745062_a_at) / RFU FAM174B (11720279_a_at) / Fold change /veh FAM174B (11720279_a_at) / RFU TMPRSS4 (11748680_a_at) / Fold change /veh TMPRSS4 (11748680_a_at) / RFU FAM212B (11763350_a_at) / Fold change /veh FAM212B (11763350_a_at) / RFU PLEKHG5 (11743358_a_at) / Fold change /veh PLEKHG5 (11743358_a_at) / RFU ZSCAN30 (11745921_a_at) / Fold change /veh ZSCAN30 (11745921_a_at) / RFU CMKLR1 (11741424_a_at) / Fold change /veh CMKLR1 (11741424_a_at) / RFU LOC101060620 /// MAPK8IP1 (11723275_at) / Fold change /veh LOC101060620 /// MAPK8IP1 (11723275_at) / RFU SPTSSB (11747773_x_at) / Fold change /veh SPTSSB (11747773_x_at) / RFU PRSS12 (11739890_at) / Fold change /veh PRSS12 (11739890_at) / RFU BIN1 (11741810_x_at) / Fold change /veh BIN1 (11741810_x_at) / RFU WNT11 (11732464_a_at) / Fold change /veh WNT11 (11732464_a_at) / RFU C10orf10 (11716521_a_at) / Fold change /veh C10orf10 (11716521_a_at) / RFU C5orf56 (11738089_at) / Fold change /veh C5orf56 (11738089_at) / RFU CYB561 (11721691_x_at) / Fold change /veh CYB561 (11721691_x_at) / RFU ANKRD19P (11752326_a_at) / Fold change /veh ANKRD19P (11752326_a_at) / RFU OR2T12 /// OR2T33 /// OR2T8 (11738714_s_at) / Fold change /veh OR2T12 /// OR2T33 /// OR2T8 (11738714_s_at) / RFU VCAN (11748164_a_at) / Fold change /veh VCAN (11748164_a_at) / RFU JSRP1 (11732532_at) / Fold change /veh JSRP1 (11732532_at) / RFU KRTAP10-11 (11738290_x_at) / Fold change /veh KRTAP10-11 (11738290_x_at) / RFU MYO3A (11730013_a_at) / Fold change /veh MYO3A (11730013_a_at) / RFU EBF3 (11725865_a_at) / Fold change /veh EBF3 (11725865_a_at) / RFU CAMK2N1 (11719241_x_at) / Fold change /veh CAMK2N1 (11719241_x_at) / RFU C5orf56 (11738088_a_at) / Fold change /veh C5orf56 (11738088_a_at) / RFU OLFML3 (11715873_a_at) / Fold change /veh OLFML3 (11715873_a_at) / RFU LOC100653217 /// NTM (11731650_a_at) / Fold change /veh LOC100653217 /// NTM (11731650_a_at) / RFU MAPK11 (11762145_a_at) / Fold change /veh MAPK11 (11762145_a_at) / RFU FIZ1 (11724087_x_at) / Fold change /veh FIZ1 (11724087_x_at) / RFU OASL (11726364_x_at) / Fold change /veh OASL (11726364_x_at) / RFU SOX15 (11748057_x_at) / Fold change /veh SOX15 (11748057_x_at) / RFU CD79A (11719716_a_at) / Fold change /veh CD79A (11719716_a_at) / RFU HIST1H1D (11736915_at) / Fold change /veh HIST1H1D (11736915_at) / RFU CASKIN2 (11723855_a_at) / Fold change /veh CASKIN2 (11723855_a_at) / RFU LOC730098 (11760151_x_at) / Fold change /veh LOC730098 (11760151_x_at) / RFU OR4N2 (11742367_at) / Fold change /veh OR4N2 (11742367_at) / RFU PRRT2 (11749266_a_at) / Fold change /veh PRRT2 (11749266_a_at) / RFU SNX32 (11753110_a_at) / Fold change /veh SNX32 (11753110_a_at) / RFU CDHR5 (11726645_a_at) / Fold change /veh CDHR5 (11726645_a_at) / RFU RCAN1 (11760418_a_at) / Fold change /veh RCAN1 (11760418_a_at) / RFU FAM167A (11723789_a_at) / Fold change /veh FAM167A (11723789_a_at) / RFU FAM26E (11764081_at) / Fold change /veh FAM26E (11764081_at) / RFU ISYNA1 (11749810_s_at) / Fold change /veh ISYNA1 (11749810_s_at) / RFU ACY1 (11761880_at) / Fold change /veh ACY1 (11761880_at) / RFU 11764098_at / Fold change /veh 11764098_at / RFU SAMD14 (11745864_x_at) / Fold change /veh SAMD14 (11745864_x_at) / RFU NPB (11741838_a_at) / Fold change /veh NPB (11741838_a_at) / RFU TMPRSS6 (11731388_a_at) / Fold change /veh TMPRSS6 (11731388_a_at) / RFU KRTAP10-2 (11738614_at) / Fold change /veh KRTAP10-2 (11738614_at) / RFU ARHGAP8 /// PRR5-ARHGAP8 (11727945_x_at) / Fold change /veh ARHGAP8 /// PRR5-ARHGAP8 (11727945_x_at) / RFU KRTAP5-7 /// NADSYN1 (11734609_at) / Fold change /veh KRTAP5-7 /// NADSYN1 (11734609_at) / RFU RASL12 (11751679_a_at) / Fold change /veh RASL12 (11751679_a_at) / RFU CDKN2B (11736163_a_at) / Fold change /veh CDKN2B (11736163_a_at) / RFU PRF1 (11729649_at) / Fold change /veh PRF1 (11729649_at) / RFU, ZNF638 /// ZNF638-IT1 / Fold change vs veh, ZNF638 /// ZNF638-IT1 / RFU, PANK3 / Fold change vs veh, PANK3 / RFU, SH3YL1 / Fold change vs veh, SH3YL1 / RFU, ZEB2 / Fold change vs veh, ZEB2 / RFU, NRIP1 / Fold change vs veh, NRIP1 / RFU, PTTG1IP / Fold change vs veh, PTTG1IP / RFU, CAPN2 / Fold change vs veh, CAPN2 / RFU, MED14 / Fold change vs veh, MED14 / RFU, SNORA58 / Fold change vs veh, SNORA58 / RFU, C1orf63 / Fold change vs veh, C1orf63 / RFU, LRRFIP1 / Fold change vs veh, LRRFIP1 / RFU, NDUFAF7 / Fold change vs veh, NDUFAF7 / RFU, SLC12A2 / Fold change vs veh, SLC12A2 / RFU, IBTK / Fold change vs veh, IBTK / RFU, ESF1 / Fold change vs veh, ESF1 / Fold change vs veh, TMEM50B / RFU, TAOK1 / Fold change vs veh, TAOK1 / RFU, ACBD3 / Fold change vs veh, ACBD3 / RFU, TMA16 / Fold change vs veh, TMA16 / RFU, RWDD3 / Fold change vs veh, RWDD3 / RFU, BCAT1 / Fold change vs veh, BCAT1 / RFU, EDEM3 / Fold change vs veh, EDEM3 / RFU, TMEM33 / Fold change vs veh, TMEM33 / RFU, WDR75 / Fold change vs veh, WDR75 / RFU, AHCTF1 / Fold change vs veh, AHCTF1 / RFU, TFRC / Fold change vs veh, TFRC / RFU, ZDHHC17 / Fold change vs veh, ZDHHC17 / RFU, NOM1 / Fold change vs veh, NOM1 / RFU, ARL8B / Fold change vs veh, ARL8B / RFU, ZBTB11 / Fold change vs veh, ZBTB11 / RFU, TAMM41 / Fold change vs veh, TAMM41 / RFU, KIAA1704 /// LOC100996395 / Fold change vs veh, KIAA1704 /// LOC100996395 / RFU, ING1 / Fold change vs veh, ING1 / RFU, TRMT61B / Fold change vs veh, TRMT61B / RFU, FUBP3 / Fold change vs veh, FUBP3 / RFU, TP53 / Fold change vs veh, TP53 / RFU, TNKS2 / Fold change vs veh, TNKS2 / RFU, ZFP14 / Fold change vs veh, ZFP14 / RFU, ACTR2 / Fold change vs veh, ACTR2 / RFU, PPP3R1 / Fold change vs veh, PPP3R1 / RFU, PIK3R1 / Fold change vs veh, PIK3R1 / RFU, HNRNPA1 / Fold change vs veh, HNRNPA1 / RFU, RNF170 / Fold change vs veh, RNF170 / RFU, ZNF28 / Fold change vs veh, ZNF28 / RFU, RNGTT / Fold change vs veh, RNGTT / RFU, OGT / Fold change vs veh, OGT / RFU, BRD1 / Fold change vs veh, BRD1 / RFU, MARS / Fold change vs veh, MARS / RFU, ZNF655 / Fold change vs veh, ZNF655 / RFU, FAHD1 / Fold change vs veh, FAHD1 / RFU, BDP1 / Fold change vs veh, BDP1 / RFU, LRRCC1 / Fold change vs veh, LRRCC1 / RFU, ARID1A / Fold change vs veh, ARID1A / RFU, ZNF146 / Fold change vs veh, ZNF146 / RFU, ZNF330 / Fold change vs veh, ZNF330 / RFU, GPN3 / Fold change vs veh, GPN3 / RFU, C9orf123 / Fold change vs veh, C9orf123 / RFU, N4BP2L2 / Fold change vs veh, N4BP2L2 / RFU, ARFIP1 / Fold change vs veh, ARFIP1 / RFU, FAM179B / Fold change vs veh, FAM179B / RFU, BCL10 / Fold change vs veh, BCL10 / RFU, UHRF1BP1L / Fold change vs veh, UHRF1BP1L / RFU, BET1 / Fold change vs veh, BET1 / RFU, CNOT2 / Fold change vs veh, CNOT2 / RFU, ZNF268 / Fold change vs veh, ZNF268 / Fold change vs veh, ZNF507 / RFU, DGCR2 / Fold change vs veh, DGCR2 / RFU, WDSUB1 / Fold change vs veh, WDSUB1 / Fold change vs veh, HSP90B1 /// MIR3652 / RFU, ADSS / Fold change vs veh, ADSS / RFU, GK / Fold change vs veh, GK / RFU, ZNF148 / Fold change vs veh, ZNF148 / RFU, TAF9 / Fold change vs veh, TAF9 / RFU, SLC1A5 / Fold change vs veh, SLC1A5 / RFU, SLMO2 / Fold change vs veh, SLMO2 / RFU, ABCC4 / Fold change vs veh, ABCC4 / RFU, LOC101060439 /// RAP1B / Fold change vs veh, LOC101060439 /// RAP1B / RFU, RFX7 / Fold change vs veh, RFX7 / RFU, GTPBP10 / Fold change vs veh, GTPBP10 / RFU, CNEP1R1 / Fold change vs veh, CNEP1R1 / RFU, BIVM-ERCC5 /// ERCC5 / Fold change vs veh, BIVM-ERCC5 /// ERCC5 / RFU, ILF3 / Fold change vs veh, ILF3 / RFU 11762660_at / Fold change /veh 11762660_at / RFU VCAN (11757783_s_at) / Fold change /veh VCAN (11757783_s_at) / RFU DDX43 (11728927_at) / Fold change /veh DDX43 (11728927_at) / RFU KRT8 (11758188_x_at) / Fold change /veh KRT8 (11758188_x_at) / RFU NKD1 (11759106_at) / Fold change /veh NKD1 (11759106_at) / RFU SRD5A1 (11742802_a_at) / Fold change /veh SRD5A1 (11742802_a_at) / RFU TPSAB1 /// TPSB2 (11721975_s_at) / Fold change /veh TPSAB1 /// TPSB2 (11721975_s_at) / RFU GSTM3 (11746129_a_at) / Fold change /veh GSTM3 (11746129_a_at) / RFU IL23R (11737362_x_at) / Fold change /veh IL23R (11737362_x_at) / RFU TMEM51 (11727254_a_at) / Fold change /veh TMEM51 (11727254_a_at) / RFU PIWIL2 (11732686_x_at) / Fold change /veh PIWIL2 (11732686_x_at) / RFU ORM1 (11744905_x_at) / Fold change /veh ORM1 (11744905_x_at) / RFU CCDC152 (11743942_at) / Fold change /veh CCDC152 (11743942_at) / RFU ECM1 (11717891_a_at) / Fold change /veh ECM1 (11717891_a_at) / RFU IL23R (11748794_a_at) / Fold change /veh IL23R (11748794_a_at) / RFU TNFAIP8L3 (11732012_x_at) / Fold change /veh TNFAIP8L3 (11732012_x_at) / RFU MBOAT4 (11741988_at) / Fold change /veh MBOAT4 (11741988_at) / RFU 11764193_at / Fold change /veh 11764193_at / RFU TMEM53 (11763286_at) / Fold change /veh TMEM53 (11763286_at) / RFU MAGEB2 (11727129_at) / Fold change /veh MAGEB2 (11727129_at) / RFU TMEM200A (11744735_a_at) / Fold change /veh TMEM200A (11744735_a_at) / RFU CCDC152 (11751479_a_at) / Fold change /veh CCDC152 (11751479_a_at) / RFU FAM211A (11726209_a_at) / Fold change /veh FAM211A (11726209_a_at) / RFU RGS16 (11746705_a_at) / Fold change /veh RGS16 (11746705_a_at) / RFU VCAN (11755009_s_at) / Fold change /veh VCAN (11755009_s_at) / RFU RHOB (11743442_s_at) / Fold change /veh RHOB (11743442_s_at) / RFU RGS16 (11720943_a_at) / Fold change /veh RGS16 (11720943_a_at) / RFU RGS16 (11720944_at) / Fold change /veh RGS16 (11720944_at) / RFU, VPS4B / Fold change vs veh, VPS4B / RFU, CREB1 / Fold change vs veh, CREB1 / RFU, DNAJC13 / Fold change vs veh, DNAJC13 / RFU, GNAQ / Fold change vs veh, GNAQ / RFU, CDK5R1 / Fold change vs veh, CDK5R1 / RFU, ZRANB3 / Fold change vs veh, ZRANB3 / RFU, CUL4A / Fold change vs veh, CUL4A / RFU, CCNY / Fold change vs veh, CCNY / RFU, UFL1 / Fold change vs veh, UFL1 / RFU, COG3 / Fold change vs veh, COG3 / RFU, DIAPH2 / Fold change vs veh, DIAPH2 / RFU, SKA2 / Fold change vs veh, SKA2 / RFU, AFF3 / Fold change vs veh, AFF3 / RFU, LMF1 / Fold change vs veh, LMF1 / RFU, IPO11 / Fold change vs veh, IPO11 / RFU, DFFB / Fold change vs veh, DFFB / RFU, FOXP1 / Fold change vs veh, FOXP1 / RFU, CARD8 / Fold change vs veh, CARD8 / RFU, STRN3 / Fold change vs veh, STRN3 / RFU, ADK / Fold change vs veh, ADK / RFU, RASSF2 / Fold change vs veh, RASSF2 / RFU, WIPF1 / Fold change vs veh, WIPF1 / RFU, LARP1B / Fold change vs veh, LARP1B / RFU, RASA1 / Fold change vs veh, RASA1 / RFU, RB1 / Fold change vs veh, RB1 / RFU, PPFIA1 / Fold change vs veh, PPFIA1 / RFU, MAT2A / Fold change vs veh, MAT2A / RFU, CCT5 / Fold change vs veh, CCT5 / RFU, WDR92 / Fold change vs veh, WDR92 / RFU, CUX1 / Fold change vs veh, CUX1 / RFU, TTC7A / Fold change vs veh, TTC7A / RFU, TMEM135 / Fold change vs veh, TMEM135 / RFU, DEPTOR / Fold change vs veh, DEPTOR / RFU, CPM / Fold change vs veh, CPM / RFU, DNAJB6 / Fold change vs veh, DNAJB6 / RFU, CACNA2D3 / Fold change vs veh, CACNA2D3 / RFU, DTX4 / Fold change vs veh, DTX4 / RFU, TFCP2 / Fold change vs veh, TFCP2 / RFU, GMCL1 /// GMCL1P1 / Fold change vs veh, GMCL1 /// GMCL1P1 / RFU, AEBP2 / Fold change vs veh, AEBP2 / RFU, SNHG1 /// SNORD22 /// SNORD25 /// SNORD26 /// SNORD27 /// SNORD28 /// SNORD29 /// SNORD31 / Fold change vs veh, SNHG1 /// SNORD22 /// SNORD25 /// SNORD26 /// SNORD27 /// SNORD28 /// SNORD29 /// SNORD31 / Fold change (Aza/veh), C12orf56 (ProbeSet 11735607_a_at) / Fold change (ACY-1035/veh), C12orf56 (ProbeSet 11735607_a_at) / Fold change (Aza/veh), FGFR1OP (ProbeSet 11751329_s_at) / Fold change (ACY-1035/veh), FGFR1OP (ProbeSet 11751329_s_at) / Fold change (Aza/veh), VPS36 (ProbeSet 11739960_a_at) / Fold change (ACY-1035/veh), VPS36 (ProbeSet 11739960_a_at) / RFU SYPL1 (11715823_x_at) / Fold change /veh SYPL1 (11715823_x_at) / RFU IGFBP7 (11715501_s_at) / Fold change /veh IGFBP7 (11715501_s_at) / RFU REEP3 (11722064_at) / Fold change /veh REEP3 (11722064_at) / RFU IGLL1 (11728026_x_at) / Fold change /veh IGLL1 (11728026_x_at): dose or concentration left out as unconfirmed
Conditions: MV-4-11 cells, 48 hours

Nc1ccc(-c2cccs2)cc1NC(=O)c1ccc2c(c1)cc(C1CC1)n2CCN1CCOCC1 [ACY-1035]
Fold change /veh VCAN (11755009_s_at): 1.16
